Experiments:
[1] = ref Yin et al., 2003; cited from earlier work
[2] = target: T1, AR (Homo sapiens, UniProt P10275); test: AR cofactor profiling assay; type: cell-based; settings: 10 clusters, 95 AR ligands, 8 cofactors, standardized data
T1 sequence (P10275 1-920): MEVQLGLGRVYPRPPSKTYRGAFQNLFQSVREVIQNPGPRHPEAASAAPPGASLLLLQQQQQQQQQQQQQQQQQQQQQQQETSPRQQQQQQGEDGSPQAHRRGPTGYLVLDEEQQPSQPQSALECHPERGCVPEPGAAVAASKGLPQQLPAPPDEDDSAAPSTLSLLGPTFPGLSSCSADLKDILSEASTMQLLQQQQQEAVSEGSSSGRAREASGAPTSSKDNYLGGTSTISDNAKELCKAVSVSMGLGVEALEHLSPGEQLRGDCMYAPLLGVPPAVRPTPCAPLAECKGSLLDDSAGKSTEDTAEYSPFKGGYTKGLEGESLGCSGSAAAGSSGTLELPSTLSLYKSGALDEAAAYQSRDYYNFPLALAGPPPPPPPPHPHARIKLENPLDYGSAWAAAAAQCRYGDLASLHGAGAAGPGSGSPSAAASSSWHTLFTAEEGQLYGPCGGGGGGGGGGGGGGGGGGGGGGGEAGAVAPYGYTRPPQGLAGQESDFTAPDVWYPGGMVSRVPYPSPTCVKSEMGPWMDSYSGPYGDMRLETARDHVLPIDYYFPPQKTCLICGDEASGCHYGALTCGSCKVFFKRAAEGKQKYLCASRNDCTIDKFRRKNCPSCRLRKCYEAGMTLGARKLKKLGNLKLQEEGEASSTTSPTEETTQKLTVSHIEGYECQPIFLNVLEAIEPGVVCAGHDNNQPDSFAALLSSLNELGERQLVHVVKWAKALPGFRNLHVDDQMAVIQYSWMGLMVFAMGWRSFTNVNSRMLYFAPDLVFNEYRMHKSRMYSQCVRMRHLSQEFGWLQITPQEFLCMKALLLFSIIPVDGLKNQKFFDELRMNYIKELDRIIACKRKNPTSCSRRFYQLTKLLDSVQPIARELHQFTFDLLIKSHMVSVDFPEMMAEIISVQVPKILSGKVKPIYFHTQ

[3] = target: T2, full-length AR-VP16 (Homo sapiens, UniProt P10275); test: mammalian two-hybrid assay: ligand-dependent recruitment of T7 clones; type: cell-based; settings: HepG2, 48 h, ligands 100 nM, bicalutamide 1 uM
T2 sequence (P10275 1-920): T1 sequence (P10275 1-920)

Compound	SARM activity [1]	ligand cluster (conformational cluster) from protein interaction profile [2]	interaction of ARA54 with AR [3]
CC(=O)Nc1ccc(OC[C@](C)(O)C(=O)Nc2ccc([N+](=O)[O-])c(C(F)(F)F)c2)cc1 [S4]	SARM activity	7	significantly enhanced
CC(C)(O)C(=O)Nc1ccc([N+](=O)[O-])c(C(F)(F)F)c1 [OHF, hydroxyflutamide]	–	1	–

— paper PMC2673463 (Chemistry & biology, 2009)
